# According to publication PMC12592502, “Unraveling the mechanisms behind the enhanced efficacy of β-lactam-based sideromycins” (Communications Biology, 2025):
# Assays:
# Test in all cases: Membrane PBP binding assay, competition with Bocillin FL
# PBP3 [1] = biological target: PBP3 (Acinetobacter baumannii, UniProt A0ABX6CK25); details: A. baumannii ATCC 19606 membranes
# Method: (§1) Membrane extracts containing PBPs were obtained as described above. Briefly, all species were grown in 1 L of TSB until the OD600 reached 0.9. The washed pellet was incubated with lysozyme (400 μg/mL), DNase (10 μg/mL) RNase(10 μg/mL) and anti-protease cocktail (200 mg/20 mL). Lysis was done with a French press (20,000 psi) and membrane protein were pelleted by ultracentrifugation steps (100,000 × g). The pellet was suspended in a minimal volume (300–500 μL) of KP 0.05 M buffer at pH 7. The protein concentration in the membrane preparations was determined with the Micro BCA TM Protein Assay Kit (Thermo Fisher Scientific, Rockford, IL) using bovine serum albumin as a standard.
# (§2) The PBP binding assay was done as described previously[36],[56],[57]. For each antibiotic concentration tested, a quantity of 25 to 40 μg of membrane preparation was used as the source of PBPs, depending on the species. For the purified PaPBP3, 150 ng was used in the assay. First, increasing concentrations of the test antibiotic was added to the membrane or purified PaPBP3 preparations and incubated for 10 min at 30 °C. The reporter molecule Bocillin FL was then added at 12.5 μM for the membrane PBPs preparations and at 500 nM for the pure PaPBP3 samples for an additional 20 min at 30 °C. All reactions were stopped with the addition of the Laemmli-loading buffer (Bio-Rad) containing fresh β-mercaptoethanol (Sigma). All reactions were then heated at 100°C for 3 min before migration on SDS-polyacrylamide discontinuous gel system (7.5% stacking and 10% separating). Control samples without Bocillin FL were also included to highlight autofluorescent proteins that are not PBPs.
# (§3) To be able to visualize labeled PBPs after electrophoresis, gels were rinsed in water and fixed in a solution of 50% methanol and 7% acetic acid for 30 min. The fluorescent images of gels were obtained with the Typhoon FLA 9500 instrument (GE-Healthcare Bio-Sciences Inc., Baie-d’Urfé, QC, CA) using a 473 nm excitation wavelength. To obtain quantifiable data, the software Quantity One 1D analysis was used (version 4.6.6; Bio-Rad Laboratories, Richmond, CA). The volume (intensity × constant area) of each PBP was measured. […] All IC50 data were obtained from at least two independent PBP binding assays using two different sets of compound concentrations using a linear regression. The PBP profiles were confirmed, and the PBP numbering were determined using published data and individual molecular weights. […] For example, amdinocillin (Sigma) was used for PBP2 identification. […] The IC50 for PBP 2 of P. aeruginosa was measured by including the SDS-PAGE comigrating autofluorescent protein in the background, as done previously.
# PBP4 = PBP4 (Klebsiella pneumoniae, UniProt A0ACD7U7I2); details: K. pneumoniae ATCC 13883 membranes
# Method: as §1, §2, §3
# PBP1b [2] = biological target: PBP1b (Acinetobacter baumannii, UniProt A0ABX6CHI7); details: A. baumannii ATCC 19606 membranes
# Method: as §1, §2, §3
# PBP3 [3] = biological target: PBP3 (Klebsiella pneumoniae, UniProt A0A0H3GN85); details: K. pneumoniae ATCC 13883 membranes
# Method: as §1, §2, §3
# PBP1b [4] = biological target: PBP1b (Pseudomonas aeruginosa, UniProt G3XD31); details: P. aeruginosa ATCC 27853 membranes
# Method: as §1, §2, §3
# PBP1a = PBP1a (Acinetobacter baumannii, UniProt A0ABX6CK30); details: A. baumannii ATCC 19606 membranes
# Method: as §1, §2, §3
# PBP5 = PBP5 (Pseudomonas aeruginosa, UniProt G3XD74); details: P. aeruginosa ATCC 27853 membranes
# Method: as §1, §2, §3
# Sequence of PBP3 (Acinetobacter baumannii, UniProt A0ABX6CK25) (A0ABX6CK25 1-610): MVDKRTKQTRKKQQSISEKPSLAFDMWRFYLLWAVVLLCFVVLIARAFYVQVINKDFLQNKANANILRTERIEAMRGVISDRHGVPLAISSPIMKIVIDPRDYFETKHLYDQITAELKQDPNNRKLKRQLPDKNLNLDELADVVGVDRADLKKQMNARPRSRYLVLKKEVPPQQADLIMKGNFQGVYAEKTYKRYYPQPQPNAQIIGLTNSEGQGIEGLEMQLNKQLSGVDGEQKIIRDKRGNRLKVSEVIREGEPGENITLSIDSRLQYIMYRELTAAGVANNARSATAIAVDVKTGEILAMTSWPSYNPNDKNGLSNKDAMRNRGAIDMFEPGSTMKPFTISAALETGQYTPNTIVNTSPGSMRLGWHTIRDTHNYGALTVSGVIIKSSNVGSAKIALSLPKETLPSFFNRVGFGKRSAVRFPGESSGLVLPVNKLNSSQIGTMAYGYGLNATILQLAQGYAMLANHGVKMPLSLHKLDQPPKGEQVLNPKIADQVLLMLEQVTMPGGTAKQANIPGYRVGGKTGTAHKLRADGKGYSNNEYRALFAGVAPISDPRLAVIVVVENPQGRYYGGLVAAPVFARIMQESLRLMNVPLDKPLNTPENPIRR
# Sequence of PBP3 (Klebsiella pneumoniae, UniProt A0A0H3GN85) (A0A0H3GN85 entry or part of it): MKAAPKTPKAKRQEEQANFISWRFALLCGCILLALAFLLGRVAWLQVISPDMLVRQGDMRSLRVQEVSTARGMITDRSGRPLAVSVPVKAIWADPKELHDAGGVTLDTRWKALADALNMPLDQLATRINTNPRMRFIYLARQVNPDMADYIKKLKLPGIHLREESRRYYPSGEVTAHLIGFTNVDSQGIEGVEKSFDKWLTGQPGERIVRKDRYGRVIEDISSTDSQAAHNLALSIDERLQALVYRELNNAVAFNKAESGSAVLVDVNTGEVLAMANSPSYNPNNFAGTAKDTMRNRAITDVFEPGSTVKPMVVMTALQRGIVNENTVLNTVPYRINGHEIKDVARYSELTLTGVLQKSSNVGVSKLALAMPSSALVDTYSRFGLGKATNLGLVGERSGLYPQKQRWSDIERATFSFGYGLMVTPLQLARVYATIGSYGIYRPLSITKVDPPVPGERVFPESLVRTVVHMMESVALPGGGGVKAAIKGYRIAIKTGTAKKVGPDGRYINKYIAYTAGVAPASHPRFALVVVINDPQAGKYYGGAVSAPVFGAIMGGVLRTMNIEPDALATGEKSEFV
# Sequence of PBP5 (G3XD74 entry or part of it): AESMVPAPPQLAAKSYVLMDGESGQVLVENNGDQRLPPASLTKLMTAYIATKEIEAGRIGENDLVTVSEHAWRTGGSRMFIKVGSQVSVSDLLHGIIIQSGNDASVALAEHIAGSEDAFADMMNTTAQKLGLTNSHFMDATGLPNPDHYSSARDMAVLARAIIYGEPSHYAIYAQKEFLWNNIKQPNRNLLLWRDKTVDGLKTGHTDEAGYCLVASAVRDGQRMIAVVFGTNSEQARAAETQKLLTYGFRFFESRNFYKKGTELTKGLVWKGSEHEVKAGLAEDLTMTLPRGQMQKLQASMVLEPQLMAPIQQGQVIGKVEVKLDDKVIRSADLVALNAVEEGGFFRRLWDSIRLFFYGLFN
# Sequence of PBP1b (Pseudomonas aeruginosa, UniProt G3XD31) (G3XD31 entry or part of it): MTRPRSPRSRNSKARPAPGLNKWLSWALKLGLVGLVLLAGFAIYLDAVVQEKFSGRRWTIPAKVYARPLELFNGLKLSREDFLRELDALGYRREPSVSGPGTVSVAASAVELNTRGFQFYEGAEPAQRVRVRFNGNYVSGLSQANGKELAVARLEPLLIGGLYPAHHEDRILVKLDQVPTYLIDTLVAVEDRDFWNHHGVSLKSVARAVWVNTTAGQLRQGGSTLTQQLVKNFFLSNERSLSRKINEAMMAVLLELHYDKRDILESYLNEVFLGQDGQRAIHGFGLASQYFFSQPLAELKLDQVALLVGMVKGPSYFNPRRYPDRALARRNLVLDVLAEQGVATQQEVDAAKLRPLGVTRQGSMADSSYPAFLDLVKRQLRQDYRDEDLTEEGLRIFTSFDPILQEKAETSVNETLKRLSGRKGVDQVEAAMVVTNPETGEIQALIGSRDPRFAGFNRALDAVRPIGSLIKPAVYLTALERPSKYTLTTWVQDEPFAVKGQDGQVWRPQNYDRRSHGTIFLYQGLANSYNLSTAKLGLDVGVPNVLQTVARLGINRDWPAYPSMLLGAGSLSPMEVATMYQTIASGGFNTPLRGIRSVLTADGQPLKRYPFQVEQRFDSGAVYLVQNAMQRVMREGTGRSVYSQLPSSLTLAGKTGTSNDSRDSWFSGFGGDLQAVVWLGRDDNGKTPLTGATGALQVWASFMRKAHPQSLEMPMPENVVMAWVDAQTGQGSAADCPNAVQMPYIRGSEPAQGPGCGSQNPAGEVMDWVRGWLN
# Sequence of PBP1a (A0ABX6CK30 entry or part of it): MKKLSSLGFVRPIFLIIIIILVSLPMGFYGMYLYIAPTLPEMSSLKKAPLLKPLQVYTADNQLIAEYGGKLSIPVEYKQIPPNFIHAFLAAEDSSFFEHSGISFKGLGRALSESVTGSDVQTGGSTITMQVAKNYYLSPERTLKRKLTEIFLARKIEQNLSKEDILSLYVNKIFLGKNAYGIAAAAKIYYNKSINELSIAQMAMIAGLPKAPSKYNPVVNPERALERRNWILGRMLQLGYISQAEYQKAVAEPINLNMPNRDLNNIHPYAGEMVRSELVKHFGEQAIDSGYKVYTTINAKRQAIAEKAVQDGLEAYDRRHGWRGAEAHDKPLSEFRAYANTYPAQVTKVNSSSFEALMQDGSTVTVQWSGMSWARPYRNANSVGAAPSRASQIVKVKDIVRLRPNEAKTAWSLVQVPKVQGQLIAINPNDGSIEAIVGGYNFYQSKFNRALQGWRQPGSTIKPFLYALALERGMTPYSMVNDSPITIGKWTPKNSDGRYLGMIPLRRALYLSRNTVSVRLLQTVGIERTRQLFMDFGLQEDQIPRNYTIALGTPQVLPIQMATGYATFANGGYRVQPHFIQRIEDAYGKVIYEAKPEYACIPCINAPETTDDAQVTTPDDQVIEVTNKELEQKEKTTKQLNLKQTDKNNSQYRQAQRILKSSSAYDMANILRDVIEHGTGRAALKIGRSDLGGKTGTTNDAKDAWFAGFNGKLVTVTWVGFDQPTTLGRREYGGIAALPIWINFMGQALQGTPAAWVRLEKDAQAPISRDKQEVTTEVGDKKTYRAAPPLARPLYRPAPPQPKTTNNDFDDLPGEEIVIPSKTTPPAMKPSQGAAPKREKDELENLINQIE
smiles,measurement,setting,value
"N[C@@H](C(=O)N[C@@H]1C(=O)N2C(C(=O)O)=C(Cl)CC[C@H]12)c1ccccc1 [LOR, loracarbef, reference compound]",IC50,PBP3 [1],7.8 ± 0.8 µM
same,IC50,PBP4,1.03 ± 0.72 µM
same,IC50,PBP1b [2],> 50 µM
same,IC50,PBP3 [3],4.1 ± 2.4 µM
same,IC50,PBP1b [4],1.8 ± 0.5 µM
same,IC50,PBP1a,> 50 µM
same,IC50,PBP5,> 50 µM
